Experiments:
[1] = biological target: JAK1 (Homo sapiens (Human), UniProt P23458); assay: Jak Biochemical HTRF Assay, JAK1; conditions: HTRF biochemical assay, GST-tagged catalytic domain; top concentration tested […]; read-out: JAK1 IC50
Source text: (§1) Jak Biochemical HTRF Assay Protocol
(§2) Subsequent reagent additions employed an Agilent Bravo.

[2] = biological target: JAK2 (Homo sapiens (Human), UniProt O60674); assay: Jak Biochemical HTRF Assay, JAK2; conditions: HTRF biochemical assay, GST-tagged catalytic domain; top concentration tested […]
Source text: as §1, §2

Sequence of JAK1 (P23458 875-1153): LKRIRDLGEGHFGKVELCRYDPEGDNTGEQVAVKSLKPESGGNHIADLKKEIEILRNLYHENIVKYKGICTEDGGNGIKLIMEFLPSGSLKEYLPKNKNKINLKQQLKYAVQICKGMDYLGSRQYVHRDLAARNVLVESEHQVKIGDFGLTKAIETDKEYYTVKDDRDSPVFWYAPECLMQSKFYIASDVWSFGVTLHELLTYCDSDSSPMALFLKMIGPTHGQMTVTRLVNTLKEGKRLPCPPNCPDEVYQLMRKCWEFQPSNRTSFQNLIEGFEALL
Sequence of JAK2 (O60674 849-1124): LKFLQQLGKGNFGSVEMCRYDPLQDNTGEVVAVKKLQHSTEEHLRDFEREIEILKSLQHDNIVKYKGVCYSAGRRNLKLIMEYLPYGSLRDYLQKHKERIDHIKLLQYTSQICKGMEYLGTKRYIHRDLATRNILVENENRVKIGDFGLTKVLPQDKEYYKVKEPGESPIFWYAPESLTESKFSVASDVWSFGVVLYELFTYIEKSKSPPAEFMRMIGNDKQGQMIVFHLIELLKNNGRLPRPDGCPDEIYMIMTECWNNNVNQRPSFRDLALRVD

| SMILES | IC50 [1] [nM] | IC50 [2] [nM] |
| --- | --- | --- |
| CC(C)(C)OC(=O)N1CCC(CC#N)(n2cc(C(N)=O)c(Nc3ccnc(C#N)c3)n2)CC1 [Example 9-33, tert-butyl 4-{4-carbamoyl-3-[(2-cyanopyridin-4-yl)amino]-1H-pyrazol-1-yl}-4-(cyanomethyl)piperidine-1-carboxylate] | 0.2 | 6 |
| CC(CO)OC(=O)N1CCC(CC#N)(n2cc(C(N)=O)c(Nc3ccc(F)cc3)n2)CC1 (stereo not drawn) [Example 31, 2-Hydroxy-1-methylethyl 4-{4-carbamoyl-3-[(4-fluorophenyl)amino]-1H-pyrazol-1-yl}-4-(cyanomethyl)piperidine-1-carboxylate] | 0.4 | 8 |
| N#CCC1(n2cc(C(N)=O)c(Nc3ccnc(F)c3)n2)CCN(Cc2cn[nH]c2)CC1 [Example 22-5, 1-[4-(cyanomethyl)-1-(1H-pyrazol-4-ylmethyl)piperidin-4-yl]-3-[(2-fluoropyridin-4-yl)amino]-1H-pyrazole-4-carboxamide] | 6 | 70 |
| COc1cc(Nc2nn(C3(CC#N)CCN(C(=O)OCC(F)F)CC3)cc2C(N)=O)ccn1 [Example 9-39, 2,2-difluoroethyl 4-{4-carbamoyl-3-[(2-methoxypyridin-4-yl)amino]-1H-pyrazol-1-yl}-4-(cyanomethyl)piperidine-1-carboxylate] | 7 | 348 |
| COCCOC(=O)N1CCC(CC#N)(n2cc(C(N)=O)c(Nc3ccc(S(=O)(=O)C(F)(F)F)cc3)n2)CC1 [Example 27-2, 2-methoxyethyl 4-(4-carbamoyl-3-(4-(trifluoromethylsulfonyl)phenylamino)-1H-pyrazol-1-yl)-4-(cyanomethyl)piperidine-1-carboxylate] | 0.3 | 6 |
| N#CCC1(n2cc(C(N)=O)c(Nc3ccccc3)n2)CN(C(=O)OCCCc2cccnc2)C1 [Example 30-68, 3-pyridin-3-ylpropyl 3-[4-carbamoyl-3-(phenylamino)-1H-pyrazol-1-yl]-3-(cyanomethyl)azetidine-1-carboxylate] | 45 | 445 |
| N#CCC1(n2cc(C(N)=O)c(Nc3ccnc(F)c3)n2)CCN(C(=O)CCC(F)(F)F)CC1 [Example 34-57, 1-[4-(cyanomethyl)-1-(4,4,4-trifluorobutanoyl)piperidin-4-yl]-3-[(2-fluoropyridin-4-yl)amino]-1H-pyrazole-4-carboxamide] | 0.1 | 9 |
| Cc1ncc(CN2CCC(CC#N)(n3cc(C(N)=O)c(Nc4ccnc(F)c4)n3)CC2)s1 [Example 22-15, 1-{4-(cyanomethyl)-1-[(2-methyl-1,3-thiazol-5-yl)methyl]piperidin-4-yl}-3-[(2-fluoropyridin-4-yl)amino]-1H-pyrazole-4-carboxamide] | 1 | 18 |
| N#CCC1(n2cc(C(N)=O)c(Nc3ccnc(F)c3)n2)CCN(Cc2cccnc2)CC1 [Example 22-2, 1-[4-(cyanomethyl)-1-(pyridin-3-ylmethyl)piperidin-4-yl]-3-[(2-fluoropyridin-4-yl)amino]-1H-pyrazole-4-carboxamide] | 0.2 | 5 |
| CC(C)(C)OC(=O)N1CCC(CC#N)(n2cc(C(N)=O)c(Nc3cccc(-c4ccccc4O)c3)n2)CC1 [Example 15-11, tert-butyl 4-{4-carbamoyl-3-[(2′-hydroxybiphenyl-3-yl)amino]-1H-pyrazol-1-yl}-4-(cyanomethyl)piperidine-1-carboxylate] | 13 | 182 |
| Cc1cnc(F)c(CN2CCC(CC#N)(n3cc(C(N)=O)c(Nc4ccnc(F)c4)n3)CC2)c1 [Example 22-22, 1-{4-(cyanomethyl)-1-[(2-fluoro-5-methylpyridin-3-yl)methyl]piperidin-4-yl}-3-[(2-fluoropyridin-4-yl)amino]-1H-pyrazole-4-carboxamide] | 0.4 | 13 |
| N#CCC1(n2cc(C(N)=O)c(Nc3ccccc3)n2)CCN(C(=O)OC2CCCC2)CC1 [Example 30-30, cyclopentyl 4-[4-carbamoyl-3-(phenylamino)-1H-pyrazol-1-yl]-4-(cyanomethyl)piperidine-1-carboxylate] | 1 | 50 |
| C[C@H]1C[C@](CC#N)(n2cc(C(N)=O)c(Nc3ccccc3)n2)CCN1C(=O)OC(C)(C)C (racemic) [Example 2-10] | 2 | 21 |
| Cc1cc(N2CCC(CC#N)(n3cc(C(N)=O)c(Nc4ccc(F)cc4)n3)CC2)ccc1F [Example 3-42, 1-[4-(cyanomethyl)-1-(4-fluoro-3-methylphenyl)piperidin-4-yl]-3-[(4-fluorophenyl)amino]-1H-pyrazole-4-carboxamide] | 12 | 287 |
| Cc1cc(C)c(NC(=O)N2CC(CC#N)(n3cc(C(N)=O)c(Nc4ccccc4)n3)C2)c(C)c1 [Example 38-12, 1-{3-(cyanomethyl)-1-[(2,4,6-trimethylphenyl)carbamoyl]azetidin-3-yl}-3-(phenylamino)-1H-pyrazole-4-carboxamide] | 128 | 1440 |
| N#CCC1(n2cc(C(N)=O)c(Nc3ccnc(F)c3)n2)CCC(NCc2cccc(Cl)c2)CC1 (stereo not drawn) [Example 41-20, Cis or trans 1-{4-[(3-chlorobenzyl)amino]-1-(cyanomethyl)cyclohexyl}-3-[(2-fluoropyridin-4-yl)amino]-1H-pyrazole-4-carboxamide] | 0.6 | 17 |
| N#CCC1(n2cc(C(N)=O)c(Nc3ccc(F)cc3)n2)CCN(C(=O)OCC2CC2)CC1 [Example 30-19, cyclopropylmethyl 4-{4-carbamoyl-3-[(4-fluorophenyl)amino]-1H-pyrazol-1-yl}-4-(cyanomethyl)piperidine-1-carboxylate] | 1 | 37 |
| N#CCC1(n2cc(C(N)=O)c(Nc3ccnc(F)c3)n2)CCN(C(=O)Cn2ccnc2)CC1 [Example 34-52, 1-[4-(cyanomethyl)-1-(1H-imidazol-1-ylacetyl)piperidin-4-yl]-3-[(2-fluoropyridin-4-yl)amino]-1H-pyrazole-4-carboxamide] | 4 | 154 |
| CC(C)(C)OC(=O)N1CCC(CC#N)(n2cc(C(N)=O)c(Nc3ccc(S(=O)(=O)C(F)F)cc3)n2)CC1 [Example 9-16, tert-butyl 4-[4-carbamoyl-3-({4-[(difluoromethyl)sulfonyl]phenyl}amino)-1H-pyrazol-1-yl]-4-(cyanomethyl)piperidine-1-carboxylate] | 0.09 | 0.6 |
| N#CCC1(n2cc(C(N)=O)c(Nc3ccccc3)n2)CCN(S(=O)(=O)C(F)(F)F)CC1 [Example 37-5, 1-{4-(cyanomethyl)-1-[(trifluoromethyl)sulfonyl]piperidin-4-yl}-3-(phenylamino)-1H-pyrazole-4-carboxamide] | 0.7 | 6 |
| Cc1c(Cl)cccc1NC(=O)N1CC(CC#N)(n2cc(C(N)=O)c(Nc3ccccc3)n2)C1 [Example 38-22, 1-{1-[(3-chloro-2-methylphenyl)carbamoyl]-3-(cyanomethyl)azetidin-3-yl}-3-(phenylamino)-1H-pyrazole-4-carboxamide] | 19 | 249 |
| N#CCC1(n2cc(C(N)=O)c(Nc3ccnc(F)c3)n2)CCN(Cc2ccc(F)cc2)CC1 [Example 22-11, 1-[4-(cyanomethyl)-1-(4-fluorobenzyl)piperidin-4-yl]-3-[(2-fluoropyridin-4-yl)amino]-1H-pyrazole-4-carboxamide] | 0.1 | 4 |
| N#CCC(=O)N1CCC(CC#N)(n2cc(C(N)=O)c(Nc3ccccc3)n2)CC1 [Example 36-1, 1-[1-(Cyanoacetyl)-4-(cyanomethyl)piperidin-4-yl]-3-(phenylamino)-1H-pyrazole-4-carboxamide] | 5 | 77 |
| N#CCC1(n2cc(C(N)=O)c(Nc3ccnc(F)c3)n2)CCC(NCC(F)(F)F)CC1 (stereo not drawn) [Example 40-95, Cis or trans 1-{1-(cyanomethyl)-4-[(2,2,2-trifluoroethyl)amino]cyclohexyl}-3-[(2-fluoropyridin-4-yl)amino]-1H-pyrazole-4-carboxamide] | 28 | 794 |
| COc1ccc(N2CCC(CC#N)(n3cc(C(N)=O)c(Nc4ccc(F)cc4)n3)CC2)cn1 [Example 3-53, 1-[4-(cyanomethyl)-1-(6-methoxypyridin-3-yl)piperidin-4-yl]-3-[(4-fluorophenyl)amino]-1H-pyrazole-4-carboxamide] | 0.4 | 9 |
| N#CCC1(n2cc(C(N)=O)c(Nc3ccc(F)cc3)n2)CCN(C(=O)OCC(F)F)CC1 [Example 30-7, 2,2-difluoroethyl 4-(4-carbamoyl-3-(4-fluorophenylamino)-1H-pyrazol-1-yl)-4-(cyanomethyl)piperidine-1-carboxylate] | 0.5 | 9 |
| CS(=O)(=O)CC(=O)N1CCC(CC#N)(n2cc(C(N)=O)c(Nc3ccnc(F)c3)n2)CC1 [Example 34-58, 1-{4-(cyanomethyl)-1-[(methylsulfonyl)acetyl]piperidin-4-yl}-3-[(2-fluoropyridin-4-yl)amino]-1H-pyrazole-4-carboxamide] | 0.5 | 22 |
| CC(C)(O)CC(=O)N1CCC(CC#N)(n2cc(C(N)=O)c(Nc3ccnc(F)c3)n2)CC1 [Example 34-50, 1-[4-(cyanomethyl)-1-(3-hydroxy-3-methylbutanoyl)piperidin-4-yl]-3-[(2-fluoropyridin-4-yl)amino]-1H pyrazole-4-carboxamide] | 0.2 | 8 |
| N#CCC1(n2cc(C(N)=O)c(Nc3ccnc(F)c3)n2)CCN(Cc2cccc(F)c2)CC1 [Example 22-10, 1-[4-(cyanomethyl)-1-(3-fluorobenzyl)piperidin-4-yl]-3-[(2-fluoropyridin-4-yl)amino]-1H-pyrazole-4-carboxamide] | 0.07 | 3 |
| N#CC[C@]1(n2cc(C(N)=O)c(Nc3ccc(F)cc3)n2)CC[C@@H](NCc2ccccc2)CC1 [Example 40-108, 1-[cis-4-(benzylamino)-1-(cyanomethyl)cyclohexyl]-3-[(4-fluorophenyl)amino]-1H-pyrazole-4-carboxamide] | 0.09 | 2 |

— patent US9328099B2, “Cyanomethylpyrazole carboxamides as janus kinase inhibitors” (Merck Sharp & Dohme Corp., priority 2011, dated 2016)
